In patent publication US20080275058A1, “N-Substituted-1H-Quinoline-2,4-Diones, Preparation Method Thereof, And Pharmaceutical Composition Containing The Same” (KOREA RESEARCH INSTITUTE OF CHEMICAL TECHNOLOGY, priority 2005, published 2008):
Where two headings read alike, the source gives them in different places.

How the values were obtained:
hD2L = target: T1, hD2L (Homo sapiens, UniProt P14416); assay: Radioligand binding, dopamine D2 ([3H]spiperone); conditions: Table 4; [3H]spiperone 1 nM; read-out: Binding affinity, IC50 (nM) D2
T1 construct: purchased BioSignal Packard Inc., Montreal, Canada
T1 sequence (P14416 whole entry): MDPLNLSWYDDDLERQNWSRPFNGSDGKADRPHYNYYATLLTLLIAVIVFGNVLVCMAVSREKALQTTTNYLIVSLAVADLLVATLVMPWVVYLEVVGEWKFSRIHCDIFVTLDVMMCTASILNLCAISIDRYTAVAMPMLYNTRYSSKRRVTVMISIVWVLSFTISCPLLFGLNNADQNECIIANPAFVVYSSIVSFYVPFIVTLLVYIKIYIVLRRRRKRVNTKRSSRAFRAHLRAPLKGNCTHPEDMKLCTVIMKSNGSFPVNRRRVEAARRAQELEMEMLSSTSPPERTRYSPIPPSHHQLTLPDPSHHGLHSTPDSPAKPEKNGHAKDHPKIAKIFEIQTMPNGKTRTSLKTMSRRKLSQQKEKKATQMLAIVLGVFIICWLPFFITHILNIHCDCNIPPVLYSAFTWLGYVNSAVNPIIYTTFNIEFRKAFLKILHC
In short: (§1)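 IC50 values come from nonlinear fits of three displacement experiments, each using 7-8 test concentrations in duplicate. D2L and D3 membranes were labelled with 1 nM [3H]spiperone, and D4.2 with 0.06 nM [3H]YM-09151-2. All assays used pH 7.4 Tris buffers, with the D3 buffer adding 120 mM NaCl, KCl and CaCl2.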

5-HT1a = target: T2, 5-HT1a (Homo sapiens, UniProt P08908); assay: Radioligand binding, 5-HT1a ([3H]8-OH-DPAT); conditions: Table 4; [3H]8-OH-DPAT 0.5 nM; read-out: Binding affinity, IC50 (nM) 5-HT1a
T2 construct: purchased Euroscreen/BioSignal Packard Inc
T2 sequence (P08908 1-422): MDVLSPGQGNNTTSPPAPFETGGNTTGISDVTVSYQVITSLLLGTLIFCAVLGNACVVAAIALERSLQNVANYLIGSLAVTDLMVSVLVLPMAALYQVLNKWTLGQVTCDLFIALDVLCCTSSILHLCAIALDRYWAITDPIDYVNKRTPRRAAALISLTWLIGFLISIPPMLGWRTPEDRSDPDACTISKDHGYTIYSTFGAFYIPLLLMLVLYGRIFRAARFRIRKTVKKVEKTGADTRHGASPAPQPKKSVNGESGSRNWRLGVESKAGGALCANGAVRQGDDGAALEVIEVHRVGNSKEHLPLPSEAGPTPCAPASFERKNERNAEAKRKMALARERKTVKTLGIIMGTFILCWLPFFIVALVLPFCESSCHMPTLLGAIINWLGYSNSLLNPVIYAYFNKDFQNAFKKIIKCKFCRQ
In short: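 Per manufacturer method: commercial membranes incubated with radioligand and test compound, bound label counted.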

Rotarod deficit in mice = type: in vivo, mouse; conditions: mouse, in vivo, po, unit printed as image, read-out: TD50 (median neurotoxic dose)
Protocol: (§2) The mouse was placed on a 1 inch diameter knurled plastic rod rotating at 6 rpm (Ugo-Basile, Milano, Italy), and the rotarod deficit (%) was obtained by counting the number of animals fallen from the rotating rod within 1 min [Dunham et al., 1957] at 60, 90 and 120 min after the injection of the compound according to the invention(200, 300 or 400 ? ). […] The compounds of the examples were suspended in 3% Tween 80 solution, and were administered (p.o.) 60 min before the testing.

mice = assay: Rotarod deficit in mice; type: in vivo, mouse
Protocol: as §2

[1] = target: T3, Human serotonin 5-HT6 receptor (Homo sapiens, UniProt P50406); assay: [3H]LSD binding assay on cloned 5-HT6 receptor membranes; conditions: for binding affinity at 5-HT6 receptor labeled by [3H]LSD, in words: comment on Table 2
T3 construct: made in house; host or cells: insect Sf21 cells (baculovirus vector BacPAK8)
T3 sequence (P50406 whole entry): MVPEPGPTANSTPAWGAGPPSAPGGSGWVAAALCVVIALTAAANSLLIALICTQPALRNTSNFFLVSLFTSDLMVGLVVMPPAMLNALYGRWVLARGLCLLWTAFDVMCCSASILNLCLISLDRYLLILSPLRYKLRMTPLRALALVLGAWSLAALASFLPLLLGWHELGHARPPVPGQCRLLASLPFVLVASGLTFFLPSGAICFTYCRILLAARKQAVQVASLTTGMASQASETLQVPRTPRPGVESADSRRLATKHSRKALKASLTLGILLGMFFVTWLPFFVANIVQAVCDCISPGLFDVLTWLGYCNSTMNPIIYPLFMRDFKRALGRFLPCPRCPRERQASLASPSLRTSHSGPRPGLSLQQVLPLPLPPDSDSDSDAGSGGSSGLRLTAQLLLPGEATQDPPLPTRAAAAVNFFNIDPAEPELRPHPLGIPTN

5-HT7 = target: T4, 5-HT7 (Homo sapiens, UniProt P34969); assay: Radioligand binding, 5-HT7 ([3H]LSD); conditions: Table 4; [3H]LSD 3 nM; read-out: Binding affinity, IC50 (nM) 5-HT7
T4 construct: purchased Euroscreen/BioSignal Packard Inc
T4 sequence (P34969 whole entry): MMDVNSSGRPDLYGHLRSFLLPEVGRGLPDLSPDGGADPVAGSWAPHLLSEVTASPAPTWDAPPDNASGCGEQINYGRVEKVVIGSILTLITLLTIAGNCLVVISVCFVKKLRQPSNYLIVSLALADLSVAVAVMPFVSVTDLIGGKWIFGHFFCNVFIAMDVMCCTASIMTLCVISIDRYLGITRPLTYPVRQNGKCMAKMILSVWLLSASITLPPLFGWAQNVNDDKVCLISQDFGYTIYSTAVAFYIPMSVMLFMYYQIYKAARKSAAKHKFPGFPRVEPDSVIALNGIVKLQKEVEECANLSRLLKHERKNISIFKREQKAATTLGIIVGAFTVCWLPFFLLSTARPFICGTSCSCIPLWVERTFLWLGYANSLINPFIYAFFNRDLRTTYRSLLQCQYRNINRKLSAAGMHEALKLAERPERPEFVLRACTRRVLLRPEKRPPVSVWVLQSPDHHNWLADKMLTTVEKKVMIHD

hD4.2 receptor = target: T5, hD4.2 receptor (Homo sapiens, UniProt P21917, DEL265-296); assay: Radioligand binding, dopamine D4 ([3H]YM-09151-2); conditions: Table 4; [3H]YM-09151-2 0.06 nM; read-out: Binding affinity, IC50 (nM) D4
T5 construct: purchased BioSignal Packard Inc., Montreal, Canada
T5 sequence (P21917 with tags, fused parts or gaps DEL265-296): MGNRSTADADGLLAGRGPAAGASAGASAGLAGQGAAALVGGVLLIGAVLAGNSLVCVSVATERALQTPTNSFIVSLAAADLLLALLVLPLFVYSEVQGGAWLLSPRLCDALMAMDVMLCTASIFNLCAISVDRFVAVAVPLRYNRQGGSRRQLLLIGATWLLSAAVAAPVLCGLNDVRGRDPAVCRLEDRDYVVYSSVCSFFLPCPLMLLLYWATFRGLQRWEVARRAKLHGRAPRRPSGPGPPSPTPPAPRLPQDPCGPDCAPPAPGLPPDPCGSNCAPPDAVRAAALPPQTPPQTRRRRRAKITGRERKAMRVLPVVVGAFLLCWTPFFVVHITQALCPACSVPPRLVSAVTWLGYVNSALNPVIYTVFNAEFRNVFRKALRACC
In short: as §1

hD3 = target: T6, hD3 (Homo sapiens, UniProt P35462); assay: Radioligand binding, dopamine D3 ([3H]spiperone); conditions: Table 4; [3H]spiperone 1 nM; read-out: Binding affinity, IC50 (nM) D3
T6 construct: purchased BioSignal Packard Inc., Montreal, Canada
T6 sequence (P35462 whole entry): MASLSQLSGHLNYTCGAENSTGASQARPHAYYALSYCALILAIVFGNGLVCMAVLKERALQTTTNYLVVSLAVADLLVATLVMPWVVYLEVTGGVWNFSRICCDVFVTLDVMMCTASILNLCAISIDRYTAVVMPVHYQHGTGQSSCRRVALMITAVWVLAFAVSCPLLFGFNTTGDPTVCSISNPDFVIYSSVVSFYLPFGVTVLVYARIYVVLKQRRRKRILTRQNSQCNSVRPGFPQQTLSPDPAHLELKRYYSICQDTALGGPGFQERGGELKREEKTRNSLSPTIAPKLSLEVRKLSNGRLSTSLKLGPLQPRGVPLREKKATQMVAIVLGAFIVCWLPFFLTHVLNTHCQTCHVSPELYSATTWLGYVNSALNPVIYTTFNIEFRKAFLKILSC
In short: as §1

5-HT2a = target: T7, 5-HT2a (Homo sapiens, UniProt P28223); assay: Radioligand binding, 5-HT2a ([3H]Ketanserin); conditions: Table 4; [3H]Ketanserin 1 nM; read-out: Binding affinity, IC50 (nM) 5-HT2a
T7 construct: purchased Euroscreen/BioSignal Packard Inc
T7 sequence (P28223 whole entry): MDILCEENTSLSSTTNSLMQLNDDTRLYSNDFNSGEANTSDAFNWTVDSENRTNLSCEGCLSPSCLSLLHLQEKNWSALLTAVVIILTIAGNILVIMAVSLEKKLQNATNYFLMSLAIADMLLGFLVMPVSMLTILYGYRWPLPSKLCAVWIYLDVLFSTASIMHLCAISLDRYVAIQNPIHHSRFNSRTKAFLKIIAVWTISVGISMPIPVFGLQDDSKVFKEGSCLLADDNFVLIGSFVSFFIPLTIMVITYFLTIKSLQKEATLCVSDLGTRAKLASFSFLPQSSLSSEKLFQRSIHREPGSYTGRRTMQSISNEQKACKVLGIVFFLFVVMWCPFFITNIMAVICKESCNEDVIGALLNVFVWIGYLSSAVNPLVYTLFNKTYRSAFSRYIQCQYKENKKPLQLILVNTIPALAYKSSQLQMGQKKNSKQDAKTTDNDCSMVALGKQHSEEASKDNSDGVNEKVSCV

5-HT2c = target: T8, 5-HT2c (Homo sapiens, UniProt P28335); assay: Radioligand binding, 5-HT2c ([3H]Mesulergine); conditions: Table 4; [3H]Mesulergine 1 nM; read-out: Binding affinity, IC50 (nM) 5-HT2c
T8 construct: purchased Euroscreen/BioSignal Packard Inc
T8 sequence (P28335 33-458): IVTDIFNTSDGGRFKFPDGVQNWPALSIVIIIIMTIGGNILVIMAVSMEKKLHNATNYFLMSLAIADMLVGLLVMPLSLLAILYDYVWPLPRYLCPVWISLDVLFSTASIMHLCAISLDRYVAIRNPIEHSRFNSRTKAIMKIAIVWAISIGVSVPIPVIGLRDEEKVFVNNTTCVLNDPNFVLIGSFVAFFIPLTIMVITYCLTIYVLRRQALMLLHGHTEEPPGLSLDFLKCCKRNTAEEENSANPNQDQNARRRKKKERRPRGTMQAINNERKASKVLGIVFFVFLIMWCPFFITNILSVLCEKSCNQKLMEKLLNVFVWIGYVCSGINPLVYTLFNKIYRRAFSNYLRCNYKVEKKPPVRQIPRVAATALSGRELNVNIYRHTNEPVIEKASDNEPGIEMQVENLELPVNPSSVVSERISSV

D1 = D1 (Homo sapiens, UniProt P21728); assay: Radioligand binding, dopamine D1; conditions: Table 4; read-out: Binding affinity, IC50 (nM) D1
Sequence of D1 (P21728 whole entry): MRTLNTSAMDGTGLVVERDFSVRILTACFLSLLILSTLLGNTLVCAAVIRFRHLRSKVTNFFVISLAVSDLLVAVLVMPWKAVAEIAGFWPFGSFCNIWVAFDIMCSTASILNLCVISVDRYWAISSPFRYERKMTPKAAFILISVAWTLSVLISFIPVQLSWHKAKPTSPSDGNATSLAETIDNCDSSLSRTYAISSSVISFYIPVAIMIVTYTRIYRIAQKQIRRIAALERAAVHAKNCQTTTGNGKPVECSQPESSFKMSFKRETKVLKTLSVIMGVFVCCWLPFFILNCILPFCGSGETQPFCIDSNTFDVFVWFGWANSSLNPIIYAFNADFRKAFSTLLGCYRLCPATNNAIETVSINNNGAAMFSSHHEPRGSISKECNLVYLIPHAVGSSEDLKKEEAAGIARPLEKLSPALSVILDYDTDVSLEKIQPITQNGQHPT

[2] = Table 2, 1.87 nM [3H]LSD, 37 C, 60 min, read-out: IC50 (nM), binding affinity to the 5-HT6 receptor
[3] = Table 4, read-out: Binding affinity, IC50 (nM) 5-HT6

Compound	IC50 (hD2L) [nM]	IC50 (5-HT1a) [nM]	TD50 at 120 min (Rotarod deficit in mice) [mg/kg]	Rotarod deficit (%) (mice; 200 p.o. (dose unit not given))	Rotarod deficit (%) (mice; 300 p.o. (dose unit not given))	Rotarod deficit (%) (mice; 400 p.o. (dose unit not given))	IC50 [1, 2] [nM]	IC50 [1, 3] [nM]	IC50 (5-HT7) [nM]	IC50 (hD4.2 receptor) [nM]	IC50 (hD3) [nM]	IC50 (5-HT2a) [nM]	IC50 (5-HT2c) [nM]	IC50 (D1) [nM]	binding affinity at 5-HT6 receptor labeled by [3H]LSD, in words [1]	melting point [°C]
COc1ccc([C@]2(C)C(=O)c3c(N4CCNCC4)cc(Cl)cc3N(Cc3ccccc3)C2=O)cc1 [Example 13-2, (R)-1-Benzyl-7-chloro-3-(4-methoxy-phenyl)-3-methyl-5-piperazin-1-yl-1H-quinoline-2,4-dione]	> 10000	3280	> 400	0	0	0	9	9	9520	> 10000	2580	2840	9740	5210	–	–
C[C@@]1(c2ccc(O)cc2)C(=O)c2c(N3CCNCC3)cc(Cl)cc2N(Cc2ccccc2)C1=O [Example 14-2, (R)-1-Benzyl-7-chloro-3-(4-hydroxy-phenyl)-3-methyl-5-piperazin-1-yl-1H-quinoline-2,4-dione]	> 10000	5890	> 400	0	0	0	13.3	13.3	9240	> 10000	1760	6380	> 10000	1540	–	–
CC1(c2ccccc2)C(=O)c2c(N3CCNCC3)cc(Cl)cc2N(Cc2ccccc2)C1=O (stereo not shown) [Example 22, 1-Benzyl-7-chloro-3-methyl-3-phenyl-5-piperazin-1-yl-1H-quinoline-2,4-dione]	2450	3910	> 400	0	0	0	2.7	2.3	5070	> 10000	1810	2900	1830	5140	–	–
CN1CCN(c2cc(Cl)cc3c2C(=O)C(C)(c2ccc(O)cc2)C(=O)N3Cc2cccc(N)c2)CC1 (stereo not shown) [Example 10, 1-(3-Amino-benzyl)-7-chloro-3-(4-hydroxy-phenyl)-3-methyl-5-(4-methyl-piperazin-1-yl)-1H-quinoline-2,4-dione]	> 10000	> 10000	> 400	0	0	0	6.2	6.2	> 10000	> 10000	5370	> 10000	> 10000	> 10000	–	–
COc1ccc([C@@]2(C)C(=O)c3c(N4CCNCC4)cc(Cl)cc3N(Cc3ccccc3)C2=O)cc1 [Example 13-1, (S)-1-Benzyl-7-chloro-3-(4-methoxy-phenyl)-3-methyl-5-piperazin-1-yl-1H-quinoline-2,4-dione]	> 10000	5430	> 400	0	0	0	1.4	1.4	5850	> 10000	8930	2510	7740	6150	significant affinities	–
C[C@]1(c2ccc(O)cc2)C(=O)c2c(N3CCNCC3)cc(Cl)cc2N(Cc2ccccc2)C1=O [Example 14-1, (S)-1-Benzyl-7-chloro-3-(4-hydroxy-phenyl)-3-methyl-5-piperazin-1-yl-1H-quinoline-2,4-dione]	> 10000	7950	> 400	0	0	0	1.9	1.9	9860	> 10000	7650	2000	> 10000	7070	significant affinities	–
COc1ccc(C2(C)C(=O)c3c(N4CCNCC4)cc(Cl)cc3N(Cc3cccc(N)c3)C2=O)cc1 (stereo not shown) [Example 25, 1-(3-Amino-benzyl)-7-chloro-3-(4-methoxy-phenyl)-3-methyl-5-piperazin-1yl-1H-quinoline-2,4-dione]	7650	5890	–	–	–	–	6.2	15.9	8050	9750	9660	6610	7600	6520	–	183 to 184
